According to patent publication US7868019B2, “Dermatitis treating agent” (Mitsubishi Tanabe Pharma Corporation, priority 2005, dated 2011):

What was measured:
Contact Dermatitis Model = test: Contact dermatitis model (oxazolone sensitization and challenge, ear swelling); format: in vivo, BALB/c male mice; conditions: BALB/c mice, oxazolone-sensitized; topical challenge on right ear at Day 7 with 0.5% oxazolone containing 1% (w/v) test compound; ear thickness 24 hours after challenge vs control
Procedure: (1) Effects of Test Compounds in Contact Dermatitis Model (Method) BALB/c male mice (BALB/c AnNCrlCrlj, 5-weeks old, acclimating term: one week, body weight: 20 to 30 g, one group: 4 to 6 mice, available from CHARLES RIVER LABORATORIES JAPAN, INC.) were sensitized by epicutaneous application of 100 μL 0.5% (w/v) oxazolone solution (Solvent: acetone) on the shaved abdomen (Day 0). At the 7th day (Day 7) after sensitization, mice were challenged on both sides of right ears by topical application of 20 μL (10 μL for each side) 0.5% (w/v) oxazolone solution containing 1% (w/v) of respective test compounds (Solvent: acetone or an equal amount mixture of acetone/ethanol). Ear thickness was measured before and 24 hours after challenge by using a thickness gauge. In the control group, sensitized animals were challenged with 20 μL 0.5% (w/v) oxazolone solution containing no test compound (Solvent: acetone) on right ears. Effects of the respective test compounds were expressed as ear swelling inhibitory rate (%) given by the following formula. Ear swelling inhibitory rate (%)=[1−(mean ear swelling of group treated with test compound/mean ear swelling of control group)]×100 Note) Ear swelling=Ear thickness 24 hours after challenge at Day 7−Ear thickness before challenge at Day 7 (2) Effects of Test Compounds on Dermatitis Models Induced by Repeated Topical Application of Hapten (Method)

[1] = test system: Dermatitis Models Induced by Repeated Topical Application of Hapten; test: Dermatitis model induced by repeated topical application of hapten (oxazolone, ear swelling); format: in vivo, BALB/c male mice; conditions: BALB/c mice; repeated topical challenge (Day 0, 2, 4, 7, 9) with 0.5% oxazolone containing 1% (w/v) test compound; ear thickness 24 hours after final challenge at Day 9 vs control
Procedure: Effects of the respective test compounds were expressed as ear swelling inhibitory rate (%) given by the following formula. Ear swelling inhibitory rate (%)=[1−(mean ear swelling of group treated with test compound/mean ear swelling of control group)]×100 Note) Ear swelling=Ear thickness 24 hours after challenge at Day 7−Ear thickness before challenge at Day 7 (2) Effects of Test Compounds on Dermatitis Models Induced by Repeated Topical Application of Hapten (Method) […], BALE/c male mice (BALB/c AnNCrlCrlj, 5-weeks old, acclimating term: one week, body weight: 20 to 30 g, one group: 4 to 6 mice, available from CHARLES RIVER LABORATORIES JAPAN, INC.) were sensitized on both sides of right ears by a topical application of 20 μL (10 μL for each side) 0.5% (w/v) oxazolone solution (Solvent: acetone)(Day−7). At the respective points of the 7th day (Day 0), 9th day (Day 2), 11th day (Day 4), 14th day (Day 7) and 16th day (Day 9) after sensitization, mice were challenged on the both sides of right ears by topical application of 20 μL (10 μL for each side) 0.5% (w/v) oxazolone solution containing 1% (w/v) of the respective test compounds (Solvent: acetone or an equal amount mixture of acetone/ethanol). Ear thickness was measured before challenge of the test compound solution or suspension by using a thickness gauge. At the final day (Day 9), ear thickness was measured also 24 hours after challenge. In control group, sensitized animals were challenged with 20 μL 0.5% (w/v) oxazolone solution containing no test compound (Solvent: acetone) on right ears. Effects of the respective test compounds were expressed as ear swelling inhibitory rate (%) given by following formula. Ear swelling inhibitory rate (%)=[1−(mean ear swelling of group treated with test compound/mean ear swelling of control group)]×100 Note) Ear swelling=(Thickness of ear 24 hours after final challenge at Day 9)−(Thickness of ear before sensitization at Day−7)

Compound	Ear swelling inhibitory rate (%) Contact dermatitis model (Contact Dermatitis Model) [%]	Ear swelling inhibitory rate (%) Dermatitis model induced by repeated application of Hapten [1] [%]
COc1cc2cc(CO)c(CO)c(-c3ccnc(-n4nc(-c5cccnc5)c5cc(OC)c(OC)cc5c4=O)c3)c2cc1OC [(10), 1-[2-[6,7-dimethoxy-4-(3-pyridyl)phthalazin-1(2H)-one-2-yl]pyridin-4-yl]-2,3-bis(hydroxymethyl)-6,7-dimethoxy-naphthalene]	66.0	–
COc1cc2cc(CO)c(CO)c(-c3ccnc(-n4c(=O)cc(NCCCNC5CCCCC5)c5ccccc54)c3)c2cc1OC [(8), 1-[2-[1,2-dihydro-4-[3-(cyclohexylamino)propylamino]-2-oxoquinolin-1-yl]pyridin-4-yl]-2,3-bis(hydroxymethyl)-6,7-dimethoxynaphthalene]	75.0	37.0
1-[2-[4-(dimethylaminophenyl)phthalazin-1(2H)-one-2-yl]-pyridin-4-yl]-2,3-bis(hydroxymethyl)-6,7-dimethoxy-naphthalene [(9)]	52.0	60.0
(3S)-1-[2-[4-(dimethylaminophenyl)phthalazin-1(2H)-one-2-yl]pyridin-4-yl]-3,4-dihydro-3-hydroxymethyl-6,7-dimethoxy-isoquinoline [(11)]	69.0	51.0
